Assay results: ChEMBL document CHEMBL1201861, “Genomics of Drug Sensitity in Cancer screening data, Wellcome Trust Sanger Institute”

How the values were obtained:
Assay in all cases: cells
Settings in all cases: Homo sapiens
RPMI-8866 = assay type: functional, cell-based
Description: SANGER: Inhibition of human RPMI-8866 cell growth in a cell viability assay.

CW-2 = assay type: functional, cell-based;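 note: growth inhibition of CW-2 cells, read out by a cell viability assay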
Description: SANGER: Inhibition of human CW-2 cell growth in a cell viability assay.

MLMA = assay type: functional, cell-based;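 note: growth inhibition of MLMA cells (human), determined through a cell viability readout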
Description: SANGER: Inhibition of human MLMA cell growth in a cell viability assay.

HuTu80 = assay type: functional, cell-based, HUTU-80;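 note: growth inhibition of HuTu80 human cells, determined with a cell viability readout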
Description: SANGER: Inhibition of human HUTU-80 cell growth in a cell viability assay.

MHH-PREB-1 = assay type: functional, cell-based;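 note: cell viability assay measuring inhibition of proliferation of human MHH-PREB-1 cells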
Description: SANGER: Inhibition of human MHH-PREB-1 cell growth in a cell viability assay.

D283 Med = assay type: functional, cell-based
Description: SANGER: Inhibition of human D-283MED cell growth in a cell viability assay.

J-RT3-T3-5 = assay type: functional, cell-based;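 note: cell viability assay measuring growth inhibition of human J-RT3-T3-5 cells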
Description: SANGER: Inhibition of human J-RT3-T3-5 cell growth in a cell viability assay.

TE-10 = assay type: functional, cell-based;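 note: growth inhibition of TE-10 cells, measured by a cell viability assay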
Description: SANGER: Inhibition of human TE-10 cell growth in a cell viability assay.

QIMR-WIL = assay type: functional, cell-based;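 note: growth inhibition of QIMR-WIL cells, read out with a cell viability assay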
Description: SANGER: Inhibition of human QIMR-WIL cell growth in a cell viability assay.

ES8 = assay type: functional, cell-based;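 note: growth inhibition of human ES8 cells, read out with a cell viability assay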
Description: SANGER: Inhibition of human ES8 cell growth in a cell viability assay.

A704 = assay type: functional, cell-based;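 note: growth inhibition of human A704 cells, read out with a cell viability assay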
Description: SANGER: Inhibition of human A704 cell growth in a cell viability assay.

SW 962 = assay type: functional, cell-based;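 note: growth inhibition of human SW962 cells, read out by a cell viability assay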
Description: SANGER: Inhibition of human SW962 cell growth in a cell viability assay.

D-502MG = assay type: functional, cell-based
Description: SANGER: Inhibition of human D-502MG cell growth in a cell viability assay.

LU-134-A = assay type: functional, cell-based
Description: SANGER: Inhibition of human LU-134-A cell growth in a cell viability assay.

LOX IMVI = assay type: functional, cell-based
Description: SANGER: Inhibition of human LOXIMVI cell growth in a cell viability assay.

Calu-6 = assay type: functional, cell-based;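 note: growth of human Calu-6 cells, read out by a cell viability assay, IC50 marking inhibition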
Description: SANGER: Inhibition of human Calu-6 cell growth in a cell viability assay.

CP66-MEL = assay type: functional, cell-based;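 note: growth inhibition of CP66-MEL cells determined in a cell viability assay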
Description: SANGER: Inhibition of human CP66-MEL cell growth in a cell viability assay.

KM12 = assay type: functional, cell-based;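 note: KM12 cell growth inhibition, read out with a cell viability assay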
Description: SANGER: Inhibition of human KM12 cell growth in a cell viability assay.

SNU1 = assay type: functional, cell-based;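 note: growth inhibition of human NCI-SNU-1 cells, measured with a cell viability assay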
Description: SANGER: Inhibition of human NCI-SNU-1 cell growth in a cell viability assay.

LB2518-MEL = assay type: functional, cell-based;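 note: growth inhibition of human LB2518-MEL cells, measured with a cell viability assay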
Description: SANGER: Inhibition of human LB2518-MEL cell growth in a cell viability assay.

ES3 = assay type: functional, cell-based;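 note: growth inhibition of ES3 cells, read out with a cell viability assay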
Description: SANGER: Inhibition of human ES3 cell growth in a cell viability assay.

SHP77 = assay type: functional, cell-based, SHP-77;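 note: growth inhibition of human SHP-77 cells measured by a cell viability assay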
Description: SANGER: Inhibition of human SHP-77 cell growth in a cell viability assay.

GT3TKB = assay type: functional, cell-based;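 note: growth inhibition of the cell line, read out with a cell viability assay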
Description: SANGER: Inhibition of human GT3TKB cell growth in a cell viability assay.

MV4-11 = assay type: functional, cell-based, MV-4-11;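 note: cell viability readout measuring growth inhibition of human MV-4-11 cells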
Description: SANGER: Inhibition of human MV-4-11 cell growth in a cell viability assay.

ES5 = assay type: functional, cell-based;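 note: growth inhibition of human ES5 cells, read out by a cell viability assay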
Description: SANGER: Inhibition of human ES5 cell growth in a cell viability assay.

K5 = assay type: functional, cell-based
Description: SANGER: Inhibition of human K5 cell growth in a cell viability assay.

UACC-257 = assay type: functional, cell-based
Description: SANGER: Inhibition of human UACC-257 cell growth in a cell viability assay.

OVCAR-4 = assay type: functional, cell-based;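 note: growth inhibition of human OVCAR-4 cells, measured with a cell viability assay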
Description: SANGER: Inhibition of human OVCAR-4 cell growth in a cell viability assay.

OCUB-M = assay type: functional, cell-based;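 note: growth inhibition of the cancer cell line, read out through a cell viability assay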
Description: SANGER: Inhibition of human OCUB-M cell growth in a cell viability assay.

GAK = assay type: functional, cell-based;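 note: cell growth inhibition read out by a cell viability assay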
Description: SANGER: Inhibition of human GAK cell growth in a cell viability assay.

KMOE-2 = assay type: functional, cell-based;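 note: growth inhibition of human KMOE-2 cells, read out with a cell viability assay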
Description: SANGER: Inhibition of human KMOE-2 cell growth in a cell viability assay.

NTERA-2-cl-D1 = assay type: functional, cell-based;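 note: inhibition of cell growth, measured with a cell viability assay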
Description: SANGER: Inhibition of human NTERA-S-cl-D1 cell growth in a cell viability assay.

NMC-G1 = assay type: functional, cell-based;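 note: growth inhibition of the NMC-G1 cell line, measured with a cell viability read-out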
Description: SANGER: Inhibition of human NMC-G1 cell growth in a cell viability assay.

HH = assay type: functional, cell-based
Description: SANGER: Inhibition of human HH cell growth in a cell viability assay.

A4-Fuk = assay type: functional, cell-based;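 note: growth inhibition of A4-Fuk cells, read out by a cell viability assay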
Description: SANGER: Inhibition of human A4-Fuk cell growth in a cell viability assay.

A3-KAW = assay type: functional, cell-based;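 note: growth inhibition of human A3-KAW cells, read out with a cell viability assay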
Description: SANGER: Inhibition of human A3-KAW cell growth in a cell viability assay.

L-363 = assay type: functional, cell-based
Description: SANGER: Inhibition of human L-363 cell growth in a cell viability assay.

Lu-65 = assay type: functional, cell-based;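 note: growth inhibition of Lu-65 cancer cells, read out by a cell viability assay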
Description: SANGER: Inhibition of human LU-65 cell growth in a cell viability assay.

MZ7-mel = assay type: functional, cell-based;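 note: growth inhibition of human MZ7-mel cells, measured by a cell viability assay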
Description: SANGER: Inhibition of human MZ7-mel cell growth in a cell viability assay.

MEG-01 = assay type: functional, cell-based;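 note: growth inhibition of MEG-01 cells, read out by a cell viability assay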
Description: SANGER: Inhibition of human MEG-01 cell growth in a cell viability assay.

DEL = assay type: functional, cell-based;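 note: growth inhibition of the human DEL cell line, read out with a cell viability assay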
Description: SANGER: Inhibition of human DEL cell growth in a cell viability assay.

IA-LM = assay type: functional, cell-based;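 note: cell viability assay measuring growth inhibition of human IA-LM cells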
Description: SANGER: Inhibition of human IA-LM cell growth in a cell viability assay.

HL-60 = assay type: functional, cell-based;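 note: growth inhibition of human HL-60 cells, read out with a cell viability assay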
Description: SANGER: Inhibition of human HL-60 cell growth in a cell viability assay.

NCI-H1581 = assay type: functional, cell-based;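 note: cell growth inhibition read out by a viability assay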
Description: SANGER: Inhibition of human NCI-H1581 cell growth in a cell viability assay.

HT-144 = assay type: functional, cell-based
Description: SANGER: Inhibition of human HT-144 cell growth in a cell viability assay.

JVM-2 = assay type: functional, cell-based;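 note: growth inhibition of JVM-2 cells determined by a cell viability assay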
Description: SANGER: Inhibition of human JVM-2 cell growth in a cell viability assay.

NCI-H1770 = assay type: functional, cell-based;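 note: growth inhibition of NCI-H1770 cells determined with a viability readout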
Description: SANGER: Inhibition of human NCI-H1770 cell growth in a cell viability assay.

JAR = assay type: functional, cell-based;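 note: growth inhibition of human JAR cells determined with a cell viability assay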
Description: SANGER: Inhibition of human JAR cell growth in a cell viability assay.

KARPAS-45 = assay type: functional, cell-based;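 note: inhibition of cell line growth, read out through a viability assay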
Description: SANGER: Inhibition of human KARPAS-45 cell growth in a cell viability assay.

SK-PN-DW = assay type: functional, cell-based;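 note: growth inhibition measured with a viability assay on these cells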
Description: SANGER: Inhibition of human SK-PN-DW cell growth in a cell viability assay.

ONS-76 = assay type: functional, cell-based;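 note: growth inhibition of human ONS-76 cells, read out with a cell viability assay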
Description: SANGER: Inhibition of human ONS-76 cell growth in a cell viability assay.

DOHH-2 = assay type: functional, cell-based;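 note: growth inhibition of human DOHH-2 cells, read out with a cell viability assay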
Description: SANGER: Inhibition of human DOHH-2 cell growth in a cell viability assay.

GI-ME-N = assay type: functional, cell-based;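 note: growth inhibition of human GI-ME-N cells, read out with a cell viability assay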
Description: SANGER: Inhibition of human GI-ME-N cell growth in a cell viability assay.

KARPAS-299 = assay type: functional, cell-based
Description: SANGER: Inhibition of human KARPAS-299 cell growth in a cell viability assay.

DB = assay type: functional, cell-based
Description: SANGER: Inhibition of human DB cell growth in a cell viability assay.

TE-11 = assay type: functional, cell-based;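 note: growth inhibition of human TE-11 cells, read out by a cell viability assay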
Description: SANGER: Inhibition of human TE-11 cell growth in a cell viability assay.

RXF 393 = assay type: functional, cell-based;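 note: growth inhibition of human RXF 393 cells, read out with a cell viability assay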
Description: SANGER: Inhibition of human RXF393 cell growth in a cell viability assay.

EW-1 = assay type: functional, cell-based;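 note: growth inhibition of the human EW-1 cell line, read out by a cell viability assay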
Description: SANGER: Inhibition of human EW-1 cell growth in a cell viability assay.

KALS-1 = assay type: functional, cell-based;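 note: growth inhibition of KALS-1 cells, determined with a cell viability assay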
Description: SANGER: Inhibition of human KALS-1 cell growth in a cell viability assay.

MOLT-4 = assay type: functional, cell-based;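 note: growth inhibition of MOLT-4 cells, determined with a cell viability readout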
Description: SANGER: Inhibition of human MOLT-4 cell growth in a cell viability assay.

LC-2-ad = assay type: functional, cell-based;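 note: growth inhibition of human LC-2-ad cells, read out with a cell viability assay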
Description: SANGER: Inhibition of human LC-2-ad cell growth in a cell viability assay.

SBC-1 = assay type: functional, cell-based
Description: SANGER: Inhibition of human SBC-1 cell growth in a cell viability assay.

SK-N-FI = assay type: functional, cell-based
Description: SANGER: Inhibition of human SK-N-FI cell growth in a cell viability assay.

COR-L88 = assay type: functional, cell-based
Description: SANGER: Inhibition of human COR-L88 cell growth in a cell viability assay.

IST-MES1 = assay type: functional, cell-based
Description: SANGER: Inhibition of human IST-MES1 cell growth in a cell viability assay.

LAN-6 = assay type: functional, cell-based
Description: SANGER: Inhibition of human LAN-6 cell growth in a cell viability assay.

Structure (SMILES): NC(=O)c1ncn([C@@H]2O[C@H](COP(=O)(O)O)[C@@H](O)[C@H]2O)c1N
- IC50 (RPMI-8866): > 2000 µM
- IC50 (CW-2): > 2000 µM
- IC50 (MLMA): 375 µM
- IC50 (HuTu80): > 2000 µM
- IC50 (MHH-PREB-1): 416 µM
- IC50 (D283 Med): > 2000 µM
- IC50 (J-RT3-T3-5): > 2000 µM
- IC50 (TE-10): 1510 µM
- IC50 (QIMR-WIL): 486 µM
- IC50 (ES8): > 2000 µM
- IC50 (A704): > 2000 µM
- IC50 (SW 962): > 2000 µM
- IC50 (D-502MG): > 2000 µM
- IC50 (LU-134-A): 959 µM
- IC50 (LOX IMVI): 929 µM
- IC50 (Calu-6): 732 µM
- IC50 (CP66-MEL): > 2000 µM
- IC50 (KM12): > 2000 µM
- IC50 (SNU1): 464 µM
- IC50 (LB2518-MEL): > 2000 µM
- IC50 (ES3): 1100 µM
- IC50 (SHP77): > 2000 µM
- IC50 (GT3TKB): > 2000 µM
- IC50 (MV4-11): 108 µM
- IC50 (ES5): > 2000 µM
- IC50 (K5): > 2000 µM
- IC50 (UACC-257): > 2000 µM
- IC50 (OVCAR-4): 751 µM
- IC50 (OCUB-M): 1190 µM
- IC50 (GAK): > 2000 µM
- IC50 (KMOE-2): 415 µM
- IC50 (NTERA-2-cl-D1): > 2000 µM
- IC50 (NMC-G1): > 2000 µM
- IC50 (HH): 232 µM
- IC50 (A4-Fuk): 297 µM
- IC50 (A3-KAW): 368 µM
- IC50 (L-363): 179 µM
- IC50 (Lu-65): > 2000 µM
- IC50 (MZ7-mel): 1770 µM
- IC50 (MEG-01): 447 µM
- IC50 (DEL): 232 µM
- IC50 (IA-LM): 859 µM
- IC50 (HL-60): 376 µM
- IC50 (NCI-H1581): > 2000 µM
- IC50 (HT-144): > 2000 µM
- IC50 (JVM-2): > 2000 µM
- IC50 (NCI-H1770): 485 µM
- IC50 (JAR): 346 µM
- IC50 (KARPAS-45): 1410 µM
- IC50 (SK-PN-DW): 741 µM
- IC50 (ONS-76): > 2000 µM
- IC50 (DOHH-2): 1310 µM
- IC50 (GI-ME-N): > 2000 µM
- IC50 (KARPAS-299): > 2000 µM
- IC50 (DB): 91.3 µM
- IC50 (TE-11): 587 µM
- IC50 (RXF 393): 710 µM
- IC50 (EW-1): 1870 µM
- IC50 (KALS-1): 1160 µM
- IC50 (MOLT-4): 485 µM
- IC50 (LC-2-ad): 1170 µM
- IC50 (SBC-1): 1400 µM

Structure (SMILES): CCn1c(-c2nonc2N)nc2cnc(Oc3cccc(NC(=O)c4ccc(OCCN5CCOCC5)cc4)c3)cc21 [GSK-269962A]
- IC50 (RPMI-8866): > 2.5 µM
- IC50 (CW-2): > 2.5 µM
- IC50 (MLMA): > 2.5 µM
- IC50 (HuTu80): > 2.5 µM
- IC50 (MHH-PREB-1): > 2.5 µM
- IC50 (D283 Med): > 2.5 µM
- IC50 (J-RT3-T3-5): > 2.5 µM
- IC50 (TE-10): > 2.5 µM
- IC50 (SK-N-FI): > 2.5 µM
- IC50 (QIMR-WIL): 0.49 µM
- IC50 (ES8): 0.819 µM
- IC50 (SW 962): > 2.5 µM
- IC50 (D-502MG): > 2.5 µM
- IC50 (LU-134-A): > 2.5 µM
- IC50 (LOX IMVI): > 2.5 µM
- IC50 (Calu-6): > 2.5 µM
- IC50 (CP66-MEL): > 2.5 µM
- IC50 (KM12): > 2.5 µM
- IC50 (SNU1): > 2.5 µM
- IC50 (LB2518-MEL): 1.71 µM
- IC50 (ES3): > 2.5 µM
- IC50 (SHP77): > 2.5 µM
- IC50 (GT3TKB): 1.6 µM
- IC50 (MV4-11): 0.139 µM
- IC50 (ES5): > 2.5 µM
- IC50 (K5): > 2.5 µM
- IC50 (UACC-257): > 2.5 µM
- IC50 (OVCAR-4): > 2.5 µM
- IC50 (OCUB-M): > 2.5 µM
- IC50 (GAK): > 2.5 µM
- IC50 (KMOE-2): > 2.5 µM
- IC50 (NTERA-2-cl-D1): > 2.5 µM
- IC50 (NMC-G1): > 2.5 µM
- IC50 (HH): > 2.5 µM
- IC50 (A4-Fuk): > 2.5 µM
- IC50 (A3-KAW): > 2.5 µM
- IC50 (L-363): > 2.5 µM
- IC50 (Lu-65): > 2.5 µM
- IC50 (MZ7-mel): > 2.5 µM
- IC50 (MEG-01): > 2.5 µM
- IC50 (DEL): > 2.5 µM
- IC50 (HL-60): > 2.5 µM
- IC50 (COR-L88): > 2.5 µM
- IC50 (NCI-H1581): > 2.5 µM
- IC50 (HT-144): > 2.5 µM
- IC50 (JVM-2): > 2.5 µM
- IC50 (NCI-H1770): > 2.5 µM
- IC50 (JAR): > 2.5 µM
- IC50 (KARPAS-45): > 2.5 µM
- IC50 (SK-PN-DW): > 2.5 µM
- IC50 (ONS-76): > 2.5 µM
- IC50 (DOHH-2): > 2.5 µM
- IC50 (GI-ME-N): 0.0495 µM
- IC50 (KARPAS-299): > 2.5 µM
- IC50 (DB): > 2.5 µM
- IC50 (IST-MES1): > 2.5 µM
- IC50 (LAN-6): > 2.5 µM
- IC50 (RXF 393): 0.393 µM
- IC50 (EW-1): > 2.5 µM
- IC50 (KALS-1): > 2.5 µM
- IC50 (MOLT-4): > 2.5 µM
- IC50 (LC-2-ad): > 2.5 µM
- IC50 (SBC-1): > 2.5 µM
